Measured values published in US8153821B2, “Compounds” (priority 2008, dated 2012).

Tests used:
[1] = tested on: rats with scopolamine-induced cognitive deficits; experiment: Radial arm maze (RAM), scopolamine-induced deficit; type: in vivo, rat; conditions: 0.03 mg/kg or 0.1 μmol/kg p.o. 0.5 h prior to test trial, scopolamine 0.3±0.1 mg/kg s.c.
Procedure: Working memory was assessed in a radial arm maze (RAM) task. The RAM task was conducted using an automated eight-arm maze (Med Associates, Inc.) The maze was located on a circular table approximately 88 cm above the floor with overhead lighting in a dedicated testing ambient and large, high contrast geometric shapes on the wall. Furthermore, additional visual cues were located at the hub entry into each arm, above each the food hopper and on the ceiling. The central platform measured 30.5 cm in diameter with eight arms (9 cm W×45.7 cm L×16.8 cm H) radiating from it. Automatic guillotine doors were located at the entrance to each runway with a pellet receptacle at the distal end of each arm. White noise will be audible during all training and testing procedures. Activity on the maze was monitored by tracking quantitative activity (generated by infra-red beam breaks) on the computer interface and monitor screen.
Following the baseline assessment and after re-attainment test session criterion, animals were assessed for their sensitivity to chemically-induced cognitive impairment using the muscarinic antagonist scopolamine (0.2-0.4 mg/kg; s.c.). A dose of scopolamine was determined for each animal based on the minimum dose that produced significant and reliable cognitive impairment. […]

[2] = tested on: CYP1A2, CYP2C9, CYP2C19, CYP2D6, CYP3A4 (5 major CYPs); experiment: in vitro; type: in vitro ADME; conditions: human
Procedure: Inhibition of CYP1A2, CYP2C9, CYP2C19, CYP2D6 and CYP3A4 catalytic activity by (R)-3-((E)-2-(pyrrolidin-3-yl)vinyl)-5-(tetrahydropyran-4-yloxy)pyridine or a slat thereof was assessed using a fluorogenic CYP assay. Probe substrates which fluoresce upon CYP catalyzed oxidation were used to evaluate the degree of inhibition of the test substrate. A single concentration of each probe substrate (at approximately the apparent Km value) and two different concentrations of (R)-3-((E)-2-(pyrrolidin-3-yl)vinyl)-5-(tetrahydropyran-4-yloxy)pyridine hemigalactarate (2 and 20 μM) were tested in duplicate. Fluorescence intensity at selected wavelengths was used as a measure of enzyme activity. Decreased fluorescence in the presence of (R)-3-((E)-2-(pyrrolidin-3-yl)vinyl)-5-(tetrahydropyran-4-yloxy)pyridine or a sat thereof was an indication of inhibition. […] Duplicate samples were run alongside the positive and negative controls. Incubation of test samples was performed at 37° C. Experimental parameters are outlined in Table 2.

`C(=C\[C@H]1CCNC1)/c1cncc(OC2CCOCC2)c1` [Compound A, (R)-3-((E)-2-(pyrrolidin-3-yl)vinyl)-5-(tetrahydropyran-4-yloxy)pyridine] was tested, and the “RAM effect on scopolamine-induced cognitive deficits” value [1] was “overcomes scopolamine induced deficits”, the “RAM effect on scopolamine-induced cognitive deficits” value ([1]; listed as (R)-3-((E)-2-(Pyrrolidin-3-yl)vinyl)-5-(tetrahydropyran-4-yloxy)pyridine) was “able to reverse scopolamine-induced cognitive deficits” and the IC50 [2] was over 20 µM.
